Converted amounts (≈) assume the structure as drawn. The source made the active and inactive calls. Starred links: 1 amine or outer side, 2 acyl side, 3 side chain; linkers in the order of their positions; H or OH if unused. Non-standard residues stand in square brackets, D forms with d. Residues, ends and D or L forms follow the SMILES beside them. X1 = N=C(N)N(O)CCC[C@H](N[*:1])C(=O)[*:2]

One experiment has as its system Pseudomonas aeruginosa. As to the kind of experiment: Antibacterial activity against Pseudomonas aeruginosa MB5919 measured after overnight incubation. The format is functional, organism-based.
The next experiment deals with Klebsiella pneumoniae. The experiment can be described thus: Antibacterial activity against Klebsiella pneumoniae ATCC 700603 measured after overnight incubation. The format is functional, organism-based.
Another experiment concerns Acinetobacter baumannii. The experiment can be described thus: Antibacterial activity against Acinetobacter baumannii MB5973 measured after overnight incubation. The format is functional.
The next experiment has as its system Escherichia coli. As to the kind of experiment: Antibacterial activity against Escherichia coli ATCC 25922 measured after overnight incubation. Format: functional, organism-based.

Turning to `CC(C)C[C@@H]1NC(=O)[C@@H](Cc2ccccc2)NC(=O)[C@H](CCCN(O)C(=N)N)NC(=O)[C@H](Cc2c[nH]c3ccccc23)NC(=O)[C@@H](C(C)C)NC1=O`, the result with Pseudomonas aeruginosa, in the experiment with Klebsiella pneumoniae and with Escherichia coli was inactive. In the experiment with Acinetobacter baumannii, this compound came in with an MIC of 16 µg/mL (≈ 22.3 µM).
Take `CC(C)C[C@@H]1NC(=O)[C@@H](CC(C)C)NC(=O)[C@H](CCCN(O)C(=N)N)NC(=O)[C@H](Cc2c[nH]c3ccccc23)NC(=O)[C@@H](C(C)C)NC1=O` (cyclo(L[dV]W[X1][dL])): the outcome in the experiment on Pseudomonas aeruginosa, in the experiment with Klebsiella pneumoniae and in the experiment with Escherichia coli was inactive. In addition, in the experiment on Acinetobacter baumannii, it took 16 µg/mL (≈ 23.4 µM) to inhibit growth (MIC).

As a reminder, the MIC is the smallest concentration in the dilution series that meets the test's criterion for growth inhibition.

The values are drawn from ChEMBL document CHEMBL4834418, “Pentaminomycins F and G, Nonribosomal Peptides Containing 2-Pyridylalanine” (2021).
